Source: publication PMC8929329, “The pharmaceutical excipient PEG400 affect the absorption of baicalein in Caco‐2 monolayer model by interacting with UDP‐glucuronosyltransferases and efflux transport proteins” (Pharmacology Research & Perspectives, 2022)

How the values were obtained:
[1] = parameters: method as in doi:10.2174/1573412916666200206141439; settings: effect of PEG400; cited from earlier work
P-gp = test: Permeation experiments on Caco-2 cell monolayer (two-way transport); format: in vitro ADME, human; settings: human, Caco-2, with verapamil 10 µM, 5 + 10 µM Ver (P-GP inhibitor); for efflux ratio at 120 min, 5 µM: read-out: ER (P BL-AP)/(P AP-BL)
Procedure: (§1) Cell culture was performed as previously described.[15] For transport experiments, Caco-2 cells from passage number 20-30 were seeded at a density of 2 × 10^5 cells per well on transwell plate (a solid insert for cell culture contains porous permeable polycarbonate membrane) with polycarbonate membranes using a blood-counting chamber (QIU JING®). A 0.5 ml of culture medium with cells was added to the apical side (AP) and 1.5 ml of blank culture medium was added to the basolateral side (BL). During the incubation period, the medium on the AP and BL sides were changed every 2 days in the first week, and every day after a week until the 21st day. The permeation of samples was assessed in both directions at different concentrations. This experiment assessed the influence of different concentrations (%, v/v) of PEG400 on the permeation process of B, BG, and […]. […] Caco-2 cell monolayers with qualified monolayer membrane integrity were used for drug permeability experiments. Aspirated and discarded the original culture medium in the transwell plate, added pre-warmed (37°C) HBSS to wash 3 times, put it in the incubator for the last time and incubated for 30 min. […] For the AP-BL permeability (absorptive transport study), add 0.5 ml of samples (dissolved in HBSS) to the apical side (AP) as a supply chamber, and add 1.5 ml of pre-warmed HBSS to the basolateral side (BL) as a receiving chamber. Alternatively, in the permeation direction of BL-AP compartment (secretive transport study), add 1.5 ml of samples (dissolved in HBSS) to the BL side as a supply chamber, and add 0.5 ml of pre-warmed HBSS to the AP side as a receiving chamber. After the above steps, put the transwell plate on the thermostatic oscillator (Changzhou Wanhe Instrument Manufacturing Co., Ltd.) at 60 r/min. And sample 100 μl from the receiving pool or 10 μl from the supply chamber at 30, 60, 90, and 120 min depending on the experiment, and make up the same volume of blank pre-warmed HBSS. The sample taken from the transwell plate was precipitated with the 100 μl of methanol to precipitate the protein. After centrifugation at 16 000g for 15 min at 4°C, 70 μl of the supernatant was taken. And the content was determined by UPLC-MS/MS method to calculate the apparent permeability coefficient (P app) and efflux ratio (ER). The P app and ER of Caco-2 monolayers was measured and calculated as Equations ((2), (3), (4)): (2) Papp=dQ/dt/AC0 Where ΔQ/Δt (ng/ml·s) is the rate of permeability (ng/ml·s for B, BG, […]); A is for the membrane area (1.12 cm^2); C 0 (ng/ml/for B, BG, […]) is the initial concentration of the sample in the supply chamber. The apparent permeability might need to be corrected because of the effect of the marked amount of baicalein glucuronide.[17] Thus, the corrected permeability was calculated from the total rate of drug transport and the glucuronide excretion rate of bidirectional side divided by the membrane area (A) of the monolayer and the initial concentration of baicalein at the loading side (C 0): (3) Pcorrected=dQ/dt+Aex+Bex/AC0 (4) […] - BL Where P appBL-AP is the apparent permeability coefficient when the sample is added on the basolateral side; […]-BL is the apparent permeability coefficient when the sample is added on the apical side.

BCRP = test: as above; format: in vitro ADME, human; settings: human, Caco-2, with KO143 10 µM (BCRP inhibitor), 5 + 10 µM KO143 (BCRP inhibitor); for efflux ratio at 120 min, 5 µM: read-out: ER (P BL-AP)/(P AP-BL); for Papp A→B at 120 min, 5 µM: read-out: P app Absorptive (AP-BL); for Papp B→A at 120 min, 5 µM: read-out: P app Secretory (BL-AP)
Procedure: as §1

[2] = as above; format: in vitro ADME, human; settings: human, Caco-2, 5 µM; for efflux ratio at 120 min, 5 µM: read-out: ER (P BL-AP)/(P AP-BL); for Papp A→B at 120 min, 5 µM: read-out: P app Absorptive (AP-BL); for Papp B→A at 120 min, 5 µM: read-out: P app Secretory (BL-AP)
Procedure: as §1

MRP2 = test: as above; format: in vitro ADME, human; settings: human, Caco-2, with MK-571 10 µM, 5 + 10 µM MK571 (MRP inhibitor); for efflux ratio at 120 min, 5 µM: read-out: ER (P BL-AP)/(P AP-BL); for Papp A→B at 120 min, 5 µM: read-out: P app Absorptive (AP-BL); for Papp B→A at 120 min, 5 µM: read-out: P app Secretory (BL-AP)
Procedure: as §1

Caco-2 cell monolayer = test: as above; format: in vitro ADME, human; settings: for P appAL-BL / P appBL-AL: 5 μM in supply chamber; for permeation within 2 h compared with the control group: AL-BL experiment, baicalein 10 μM loaded with 0.5% (v/v) PEG400; for penetration within 2 h compared with the control group: BL-AP experiment, baicalein 10 μM loaded with 0.5% (v/v) PEG
Procedure: as §1

Stability study in HBSS = format: physicochemical; settings: 37°C, 2 h
Procedure: The test was carried out by measuring the content of B, BG, and B6G before and after keeping in the HBSS solution at 37°C for 2 h. The time interval was selected according to the permeation experiment. The differences between the contents of the three samples before or after the incubation were calculated and expressed as the percentage of B, BG, and B6G remaining.

SMILES | AUC0-t in plasma [1] | C max in plasma [1] | efflux ratio at 120 min, 5 µM (P-gp) | efflux ratio at 120 min, 5 µM (BCRP) | Papp A→B at 120 min, 5 µM (BCRP) [×10⁻⁶ cm/s] | Papp B→A at 120 min, 5 µM (BCRP) [×10⁻⁶ cm/s] | efflux ratio at 120 min, 5 µM [2] | Papp A→B at 120 min, 5 µM [2] [×10⁻⁶ cm/s] | Papp B→A at 120 min, 5 µM [2] [×10⁻⁶ cm/s] | efflux ratio at 120 min, 5 µM (MRP2) | Papp A→B at 120 min, 5 µM (MRP2) [×10⁻⁶ cm/s] | Papp B→A at 120 min, 5 µM (MRP2) [×10⁻⁶ cm/s] | ER (P BL-AP)/(P AP-BL) (Caco-2 cell monolayer; 5 µM + 0.25%PEG400) | P app Absorptive (AP-BL) (Caco-2 cell monolayer; 5 µM + 0.25%PEG400) | P app Secretory (BL-AP) (Caco-2 cell monolayer; 5 µM + 0.25%PEG400) | ER (P BL-AP)/(P AP-BL) (Caco-2 cell monolayer; 5 µM + 0.5%PEG400) | P app Absorptive (AP-BL) (Caco-2 cell monolayer; 5 µM + 0.5%PEG400) | P app Secretory (BL-AP) (Caco-2 cell monolayer; 5 µM + 0.5%PEG400) | ER (P BL-AP)/(P AP-BL) (Caco-2 cell monolayer; 5 µM + 1%PEG400) | P app Absorptive (AP-BL) (Caco-2 cell monolayer; 5 µM + 1%PEG400) | other results
O=C(O)[C@H]1O[C@@H](Oc2c(O)cc3oc(-c4ccccc4)cc(=O)c3c2O)[C@H](O)[C@@H](O)[C@@H]1O [B6G, baicalein‐6‐O‐β‐D‐glucuronide] | significantly increased | significantly increased | 0.98 | 0.71 | 6.68 ± 0.06 | 4.77 ± 0.09 | 1.1 | 6.38 ± 0.26 | 6.35 ± 0.55 | 0.65 | 6.91 ± 0.23 | 4.56 ± 0.21 | 0.93 | 6.74 ± 0.22 1 × 10^−6 cm·s^−1 | 6.3 ± 0.98 1 × 10^−6 cm·s^−1 | 0.71 | 6.15 ± 0.17 ^* 1 × 10^−6 cm·s^−1 | 4.39 ± 0.31 ^* 1 × 10^−6 cm·s^−1 | 0.56 | 7.53 ± 0.48 ^* 1 × 10^−6 cm·s^−1 | ER (P BL-AP)/(P AP-BL) (Caco-2 cell monolayer; 5 µM): 1.01; P app Secretory (BL-AP) (Caco-2 cell monolayer; 5 µM + 1%PEG400): 4.24 ± 0.25 ^** 1 × 10^−6 cm·s^−1; P appAL-BL (Caco-2 cell monolayer): 6.38 ± 0.26 ×10⁻⁶ cm/s; P appBL-AL (Caco-2 cell monolayer): 6.35 ± 0.55 ×10⁻⁶ cm/s; P app Absorptive (AP-BL) (Caco-2 cell monolayer; 5 + 10 µM Ver (P-GP inhibitor)): 6.37 ± 0.15 1 × 10^−6 cm·s^−1; P app Secretory (BL-AP) (Caco-2 cell monolayer; 5 + 10 µM Ver (P-GP inhibitor)): 6.26 ± 0.2 1 × 10^−6 cm·s^−1; permeation within 2 h compared with the control group (Caco-2 cell monolayer): significantly increased; penetration within 2 h compared with the control group (Caco-2 cell monolayer): did not show a significant difference; Stability (percentage remaining) (Stability study in HBSS; 150 ng ml^−1): 98.71 ± 6.52%; Stability (percentage remaining) (Stability study in HBSS; 300 ng ml^−1): 99.36 ± 6.23%; Stability (percentage remaining) (Stability study in HBSS; 600 ng ml^−1): 94.32 ± 5.33%
O=C(O)[C@H]1O[C@@H](Oc2cc3oc(-c4ccccc4)cc(=O)c3c(O)c2O)[C@H](O)[C@@H](O)[C@@H]1O [BG, baicalein‐7‐O‐β‐D‐glucuronide] | significantly increased | significantly increased | 1.65 | 0.62 | 10.9 ± 0.4 | 7.31 ± 0.9 | 1.57 | 6.52 ± 0.28 | 10.2 ± 0.37 | 0.86 | 13.2 ± 1.22 | 11.4 ± 0.56 | 1.03 | 9.91 ± 0.21 ^** 1 × 10^−6 cm·s^−1 | 10.24 ± 0.95 1 × 10^−6 cm·s^−1 | 0.65 | 15.98 ± 0.11 ^** 1 × 10^−6 cm·s^−1 | 10.36 ± 0.05 1 × 10^−6 cm·s^−1 | 0.57 | 14.37 ± 0.99 ^** 1 × 10^−6 cm·s^−1 | Papp A→B at 120 min, 5 µM (P-gp; read-out: P app Absorptive (AP-BL)): 6.37 ± 0.53 ×10⁻⁶ cm/s; Papp B→A at 120 min, 5 µM (P-gp; read-out: P app Secretory (BL-AP)): 10.5 ± 0.14 ×10⁻⁶ cm/s; P app Secretory (BL-AP) (Caco-2 cell monolayer; 5 µM + 1%PEG400): 8.24 ± 0.07 ^** 1 × 10^−6 cm·s^−1; P appAL-BL (Caco-2 cell monolayer): 6.52 ± 0.28 ×10⁻⁶ cm/s; P appBL-AL (Caco-2 cell monolayer): 10.23 ± 0.37 ×10⁻⁶ cm/s; permeation within 2 h compared with the control group (Caco-2 cell monolayer): significantly increased; penetration within 2 h compared with the control group (Caco-2 cell monolayer): did not show a significant difference; Stability (percentage remaining) (Stability study in HBSS; 150 ng ml^−1): 93.35 ± 8.25%; Stability (percentage remaining) (Stability study in HBSS; 300 ng ml^−1): 99.20 ± 2.56%; Stability (percentage remaining) (Stability study in HBSS; 600 ng ml^−1): 100.61 ± 4.92%
